Columns and labels:
[1] = target: HDAC1 (Homo sapiens (Human), UniProt Q13547); assay: HDAC enzyme assay, HDAC1; conditions: for HDAC1 fold over HDAC6 IC50 (selectivity for HDAC6): ratio HDAC1/HDAC6; for IC50: read-out: HDAC1 IC50
[2] = target: HDAC2 (Homo sapiens (Human), UniProt Q92769); assay: HDAC enzyme assay, HDAC2; conditions: for HDAC2 fold over HDAC6 IC50 (selectivity for HDAC6): ratio HDAC2/HDAC6; for IC50: read-out: HDAC2 IC50
[3] = target: HDAC3 (Homo sapiens (Human), UniProt O15379); assay: HDAC enzyme assay, HDAC3; conditions: for HDAC3 fold over HDAC6 IC50 (selectivity for HDAC6): ratio HDAC3/HDAC6; for IC50: read-out: HDAC3 IC50
[4] = target: HDAC6 (Homo sapiens (Human), UniProt Q9UBN7); conditions: read-out: HDAC6 IC50
Chain of HDAC6 (Q9UBN7 whole entry): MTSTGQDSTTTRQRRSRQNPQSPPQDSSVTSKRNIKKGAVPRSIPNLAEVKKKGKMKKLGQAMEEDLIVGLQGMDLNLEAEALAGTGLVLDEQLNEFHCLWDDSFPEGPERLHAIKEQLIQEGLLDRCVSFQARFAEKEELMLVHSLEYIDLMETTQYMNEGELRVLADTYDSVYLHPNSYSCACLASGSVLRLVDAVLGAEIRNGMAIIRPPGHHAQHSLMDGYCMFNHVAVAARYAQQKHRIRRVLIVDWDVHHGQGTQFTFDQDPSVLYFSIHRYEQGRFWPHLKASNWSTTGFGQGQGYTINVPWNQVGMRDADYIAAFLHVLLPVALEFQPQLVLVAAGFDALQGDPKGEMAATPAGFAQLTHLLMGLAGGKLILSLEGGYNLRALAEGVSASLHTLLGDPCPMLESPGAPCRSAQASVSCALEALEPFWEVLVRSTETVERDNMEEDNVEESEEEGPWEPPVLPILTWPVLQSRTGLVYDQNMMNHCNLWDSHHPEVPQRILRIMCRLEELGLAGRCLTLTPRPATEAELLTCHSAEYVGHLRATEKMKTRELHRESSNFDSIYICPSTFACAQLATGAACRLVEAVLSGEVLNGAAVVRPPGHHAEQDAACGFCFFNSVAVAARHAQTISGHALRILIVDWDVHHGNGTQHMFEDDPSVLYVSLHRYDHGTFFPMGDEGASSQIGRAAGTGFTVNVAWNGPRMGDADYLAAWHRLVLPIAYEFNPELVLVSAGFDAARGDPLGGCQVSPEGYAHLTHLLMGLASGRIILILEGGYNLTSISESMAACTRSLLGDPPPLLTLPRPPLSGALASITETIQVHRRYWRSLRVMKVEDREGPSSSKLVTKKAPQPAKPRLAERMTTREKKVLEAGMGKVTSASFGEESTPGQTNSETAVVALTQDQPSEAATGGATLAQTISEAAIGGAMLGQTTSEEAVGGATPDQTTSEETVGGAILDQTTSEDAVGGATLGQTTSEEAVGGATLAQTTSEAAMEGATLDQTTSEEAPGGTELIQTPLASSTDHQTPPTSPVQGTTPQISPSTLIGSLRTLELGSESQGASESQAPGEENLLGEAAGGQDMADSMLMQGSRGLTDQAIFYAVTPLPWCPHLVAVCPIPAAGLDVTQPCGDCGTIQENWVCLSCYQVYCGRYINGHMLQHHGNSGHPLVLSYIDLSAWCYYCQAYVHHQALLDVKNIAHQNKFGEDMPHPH

Chain of HDAC1 (Q13547 whole entry): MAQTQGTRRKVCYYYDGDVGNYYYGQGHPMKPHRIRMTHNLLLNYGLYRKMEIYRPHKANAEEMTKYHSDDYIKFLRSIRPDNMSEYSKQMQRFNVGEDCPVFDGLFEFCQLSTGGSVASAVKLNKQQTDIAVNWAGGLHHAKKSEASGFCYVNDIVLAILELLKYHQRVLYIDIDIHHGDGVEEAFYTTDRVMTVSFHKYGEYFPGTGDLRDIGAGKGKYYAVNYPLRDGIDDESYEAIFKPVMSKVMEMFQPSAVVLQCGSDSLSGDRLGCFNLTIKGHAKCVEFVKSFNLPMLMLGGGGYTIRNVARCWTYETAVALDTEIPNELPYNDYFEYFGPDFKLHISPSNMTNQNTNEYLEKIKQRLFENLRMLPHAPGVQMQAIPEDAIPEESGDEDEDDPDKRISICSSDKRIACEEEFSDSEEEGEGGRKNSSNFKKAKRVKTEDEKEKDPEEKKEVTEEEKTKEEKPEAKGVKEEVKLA
Chain of HDAC2 (Q92769 whole entry): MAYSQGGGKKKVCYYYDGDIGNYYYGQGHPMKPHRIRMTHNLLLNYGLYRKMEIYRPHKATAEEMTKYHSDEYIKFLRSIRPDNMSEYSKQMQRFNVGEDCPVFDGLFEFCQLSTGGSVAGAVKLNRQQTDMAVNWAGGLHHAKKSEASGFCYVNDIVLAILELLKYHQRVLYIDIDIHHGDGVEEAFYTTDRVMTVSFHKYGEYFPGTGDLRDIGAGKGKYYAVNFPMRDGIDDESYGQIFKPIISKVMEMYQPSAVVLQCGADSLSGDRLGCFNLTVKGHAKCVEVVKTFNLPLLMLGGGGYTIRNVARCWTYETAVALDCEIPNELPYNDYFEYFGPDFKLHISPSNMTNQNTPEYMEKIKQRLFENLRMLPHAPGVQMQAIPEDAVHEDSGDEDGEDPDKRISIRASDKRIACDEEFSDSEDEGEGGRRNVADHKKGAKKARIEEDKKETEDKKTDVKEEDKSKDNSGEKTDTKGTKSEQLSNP
Chain of HDAC3 (O15379 whole entry): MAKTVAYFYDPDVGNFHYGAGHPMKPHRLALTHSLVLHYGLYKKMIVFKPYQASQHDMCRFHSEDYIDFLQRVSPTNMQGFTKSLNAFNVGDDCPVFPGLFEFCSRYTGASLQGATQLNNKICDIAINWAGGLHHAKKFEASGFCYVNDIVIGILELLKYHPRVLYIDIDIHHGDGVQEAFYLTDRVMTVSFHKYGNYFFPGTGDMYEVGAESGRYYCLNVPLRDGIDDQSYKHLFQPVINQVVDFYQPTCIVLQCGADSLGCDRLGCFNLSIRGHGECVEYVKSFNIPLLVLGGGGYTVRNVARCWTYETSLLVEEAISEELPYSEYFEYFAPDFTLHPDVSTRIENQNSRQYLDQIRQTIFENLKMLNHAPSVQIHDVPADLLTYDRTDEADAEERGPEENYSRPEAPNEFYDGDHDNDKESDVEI
Chain of HDAC3 (Q9Y618 395-489 partner): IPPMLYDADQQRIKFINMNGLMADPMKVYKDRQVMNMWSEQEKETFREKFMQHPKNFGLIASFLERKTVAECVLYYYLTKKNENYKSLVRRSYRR

SMILES | HDAC1 fold over HDAC6 IC50 (selectivity for HDAC6) [1] | IC50 [1] [µM] | HDAC2 fold over HDAC6 IC50 (selectivity for HDAC6) [2] | IC50 [2] [µM] | HDAC3 fold over HDAC6 IC50 (selectivity for HDAC6) [3] | IC50 [3] [µM] | IC50 [4] [µM]
CC(Nc1ncc(C(=O)NO)cn1)(c1ccc(F)cc1)c1ccc(F)cc1 [Compound 96] | (271.8x) | 2.34 | (286.2x) | 2.46 | (662.8x) | 5.71 | 0.009
O=C(NO)c1cnc(NC2(c3ccco3)CC2)nc1 [Compound 99] | (47.3x) | 0.2 | (75.6x) | 0.32 | (81.5x) | 0.345 | 0.004
O=C(NO)c1cnc(NC2(c3cccc(F)c3)CCCCC2)nc1 [Compound 101] | (283.5x) | 2.12 | (343.2x) | 2.57 | (1498.8x) | 11.2 | 0.007
O=C(NO)c1cnc(NC2(c3cc4ccccc4s3)CC2)nc1 [Compound 102] | (7.4x) | 0.013 | (11.3x) | 0.021 | (18x) | 0.033 | 0.002
O=C(NO)c1cnc(NC2CCCCC2)nc1 [Compound 103] | (12.6x) | 0.578 | (18.1x) | 0.832 | (23.9x) | 1.1 | 0.046
O=C(NO)c1cnc(NC2CCOCC2)nc1 [Compound 104] | (16.7x) | 0.813 | (24.1x) | 1.17 | (24x) | 1.17 | 0.049
O=C(NO)c1cnc(NCc2cccs2)nc1 [Compound 105] | (54.5x) | 0.214 | (92.1x) | 0.361 | (92x) | 0.361 | 0.004
O=C(NO)c1cnc(NCc2cccnc2)nc1 [Compound 106] | (25.3x) | 0.092 | (36.5x) | 0.133 | (47.7x) | 0.174 | 0.004
O=C(NO)c1cnc(NCc2ccc(-c3ccccc3)cc2)nc1 [Compound 107] | (2.7x) | 0.06 | (3.7x) | 0.009 | (8x) | 0.019 | 0.002
O=C(NO)c1cnc(NCc2ccccn2)nc1 [Compound 108] | (42.1x) | 0.219 | (60.3x) | 0.313 | (68.3x) | 0.355 | 0.005
O=C(NO)c1cnc(NC2(Cc3ccccc3)CC2)nc1 [Compound 109] | (79.5x) | 0.324 | (94.3x) | 0.385 | (206.7x) | 0.843 | 0.004
O=C(NO)c1cnc(NC2c3ccccc3-c3ccccc32)nc1 [Compound 111] | (48x) | 0.911 | (40.5x) | 0.767 | (70x) | 1.33 | 0.019
O=C(NO)c1cnc(NC2(c3ccc(F)cc3F)CC2)nc1 [Compound 123] | (4.8x) | 0.013 | (4.3x) | 0.012 | (9.6x) | 0.026 | 0.003
O=C(NO)c1cnc(NC2(c3c(F)cccc3F)CC2)nc1 [Compound 124] | (3.6x) | 0.005 | (3.9x) | 0.006 | (5.9x) | 0.008 | 0.001
O=C(NO)c1cnc(NC2(c3cccc(OC(F)(F)F)c3)CC2)nc1 [Compound 125] | (8.7x) | 0.018 | (9x) | 0.019 | (27.1x) | 0.057 | 0.002
O=C(NO)c1cnc(NC2(c3cc(C(F)(F)F)ccc3F)CC2)nc1 [Compound 126] | (3.2x) | 0.007 | (3.9x) | 0.009 | (9.8x) | 0.022 | 0.002

Second part, the compound after the results:

HDAC1 fold over HDAC6 IC50 (selectivity for HDAC6) [1] | IC50 [1] [µM] | HDAC2 fold over HDAC6 IC50 (selectivity for HDAC6) [2] | IC50 [2] [µM] | HDAC3 fold over HDAC6 IC50 (selectivity for HDAC6) [3] | IC50 [3] [µM] | IC50 [4] [µM] | SMILES
(176.7x) | 0.586 | (217.7x) | 0.722 | (685x) | 2.27 | 0.003 | O=C(NO)c1cnc(NC2(c3ccccc3)CCOCC2)nc1 [Compound 95]
(339.9x) | 3.21 | (504.7x) | 4.76 | (1428.4x) | 13.5 | 0.009 | O=C(NO)c1cnc(NC2(c3ccc(F)cc3)CCCCC2)nc1 [Compound 100]
(34.5x) | 1.41 | (39.9x) | 1.63 | (84.7x) | 3.46 | 0.041 | CC1(Nc2ncc(C(=O)NO)cn2)CCCCC1 [Compound 110]
(44.8x) | 0.893 | (45x) | 0.898 | (197.8x) | 3.94 | 0.02 | COc1ccc(C2(Nc3ncc(C(=O)NO)cn3)CCCCC2)cc1 [Compound 122]
(8.1x) | 0.016 | (8.9x) | 0.017 | (24.8x) | 0.049 | 0.002 | O=C(NO)c1cnc(NC2(c3ccc4c(c3)OCO4)CC2)nc1 [Compound 128]
(12.7x) | 0.043 | (15.4x) | 0.052 | (36.6x) | 0.124 | 0.003 | COc1cc(OC)cc(C2(Nc3ncc(C(=O)NO)cn3)CC2)c1 [Compound 129]
(43.3x) | 0.14 | (48.9x) | 0.159 | (160.9x) | 0.521 | 0.003 | O=C(NO)c1cnc(NC2(c3ccccc3)CCC2)nc1 [Compound 130]
